Experimental data published in PubChem BioAssay (NCI).
Several values for one entry are separate records, joined by “and”; a condition that tells them apart may be missing. Identical values can stand only once.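 Cultured in 96-well plates, cells were exposed to test compound for 48 hours across five concentrations. The concentration for 50% growth inhibition is given as GI50. Definition used: TGI = concentration required for complete inhibition of growth.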

What was measured:
Experiment in all cases: inhibition of tumour cell growth, NCI panel, 48 h
[1] = system: CCRF-CEM leukemia
[2] = system: DU-145 prostate
[3] = system: HS 578T breast
[4] = system: KM12 colon
[5] = system: NCI-H460 lung
[6] = system: RPMI-8226 leukemia
[7] = system: RXF 393 renal
[8] = system: SF-268 CNS
[9] = system: SK-MEL-2 melanoma
[10] = system: UACC-62 melanoma

| SMILES | GI50 [1] | TGI [1] | GI50 [2] | TGI [2] | GI50 [3] | TGI [3] | GI50 [4] | TGI [4] | GI50 [5] | TGI [5] | GI50 [6] | TGI [6] | GI50 [7] | TGI [7] | GI50 [8] | TGI [8] | GI50 [9] | TGI [9] | GI50 [10] | TGI [10] |
| --- | --- | --- | --- | --- | --- | --- | --- | --- | --- | --- | --- | --- | --- | --- | --- | --- | --- | --- | --- | --- |
| C=C1C(=O)O[C@H]2[C@H]1CC/C(COC(=O)C(=O)c1cn(Cc3ccccc3)c3ccccc13)=C\CC[C@@]1(C)O[C@@H]21 | 1.27 µM | 9.02 µM | 2.96 µM | 11.3 µM | 3.35 µM | 29.9 µM | 3.06 µM | 11.5 µM | 2.84 µM | 12.2 µM | 2.09 µM | 8.04 µM | 1.89 µM | 3.43 µM | 2.16 µM | 6.3 µM | 2.09 µM | 4.71 µM | 1.8 µM | 4.42 µM |
| COc1cc2c(c(OC)c1OC)-c1ccc(OC)c(=O)cc1[C@@H](NC(=O)c1ccccc1)CC2 | – | > 100 µM | < 0.003 µM | 0.0329 µM and 0.237 µM | < 0.003 µM | – | – | 1.14 µM | 0.00614 µM and < 0.0126 µM | – | – | > 80.7 µM | < 0.003 µM | 8.22 µM and 3.18 µM | – | 33.1 µM | < 0.003 µM | – | < 0.003 µM | 30 µM and 59.7 µM |
| Oc1ccccc1C(Sc1nc2ccccc2s1)Sc1nc2ccccc2s1 | – | > 100 µM | – | > 100 µM | – | > 100 µM | – | > 100 µM | – | > 100 µM | – | > 100 µM | – | > 100 µM | – | > 100 µM | – | > 100 µM | – | > 100 µM |
| O=C(NC1=CC(=O)c2ccccc2C1=O)c1ccccc1 | 0.872 µM | – | 1.71 µM | 3.46 µM | 1.09 µM | 71.9 µM | 0.353 µM | 11.5 µM | 0.643 µM | 13.1 µM | 0.355 µM | > 100 µM | 1.4 µM | 3.12 µM | 1.21 µM | 13.8 µM | 0.534 µM | 15.7 µM | 0.24 µM | 0.799 µM |
| COC(=O)[C@@H](C)CNS(=O)(=O)N(c1cc(C(F)(F)F)cc(C(F)(F)F)c1)C1CCN(Cc2ccc(F)cc2)CC1 | 12.8 µM | 30.7 µM | 13.4 µM | 27.4 µM | 11.3 µM | 27.1 µM | 4.92 µM | 17.6 µM | 7.13 µM | 22.1 µM | 7.57 µM | 25.6 µM | 10.6 µM | 23.7 µM | 11.5 µM | 26.3 µM | 21 µM | 41 µM | 11 µM | 24.6 µM |
| NS(=O)(=O)c1ccc(NC2(C(=O)O)CCCC2)cc1 | – | > 100 µM | – | > 100 µM | – | > 100 µM | – | > 100 µM | – | > 100 µM | – | > 100 µM | – | > 100 µM | – | > 100 µM | – | > 100 µM | – | > 100 µM |
| c1cc(CNC23CC4CC(CC(C4)C2)C3)cc(C[N+](Cc2cccc(CNC34CC5CC(CC(C5)C3)C4)c2)(Cc2cccc(CNC34CC5CC(CC(C5)C3)C4)c2)Cc2cccc(CNC34CC5CC(CC(C5)C3)C4)c2)c1 (configuration not stated) | 6.1 µM | 209 µM | 6.16 µM | 19.3 µM | 8.01 µM | 49.4 µM | 6.92 µM | 28.2 µM | 4.97 µM | 11.3 µM | 5.51 µM | 16.7 µM | 3.39 µM | 6.54 µM | 6.39 µM | 22.6 µM | 4.44 µM | 13.4 µM | 4.86 µM | 15.4 µM |
